“And” between values parts separate entries of the source, which are not always exact repeats. Equal entries are not always repeated. Where two headings read alike, the source gives them in different places.
Legend:
sodium channels = settings: by way of comparison; cited from earlier work
rats [1] = settings: male versus female kindled rats; cited from earlier work
mice [2] = experiment: Maximal Electroshock Seizure (MES) test, mice i.p.; assay type: in vivo; settings: for ED50: Mus musculus
mice [3] = experiment: Subcutaneous Metrazol Seizure threshold (s.c. MET) test, mice i.p.; assay type: in vivo; settings: for ED50: Mus musculus
rats [4] = experiment: MES test, rats p.o.; assay type: in vivo; settings: for ED50: Rattus norvegicus, po
rats [5] = experiment: s.c. MET test, rats p.o.; assay type: in vivo; settings: for ED50: Rattus norvegicus, p.o.
rats [6] = experiment: Hippocampal Kindled Rats model; assay type: in vivo; settings: for ED50: Rattus norvegicus
rats [7] = experiment: Sciatic nerve ligation model in rats; assay type: in vivo; settings: 100 mg/kg
Description: [The response (threshold for foot withdrawal) was measured in grams.]

mice [8] = experiment: Minimal motor impairment (MID50), mice i.p.; settings: for MID50 (median minimal motor impairment dose): mice, i.p.
Description: (§1) The animal testing was performed according to methods known in the relevant art.

rats [9] = experiment: Pilocarpine-induced Status Epilepticus in Rats (prevention; intervention @ 30 min); settings: for Prevention, Protection: rat, in vivo, 200 mg/kg
Description: The animal testing was performed using the protocols developed in the Anticonvulsant Screening Program (ASP) at the National Institute of Neurological Disorders and Stroke (NINDS), National Institutes of Health (NIH).

mice [10] = experiment: 6 Hz (minimal clonic seizure) model, mice i.p.; assay type: in vivo; settings: ip; for ED50: Mus musculus
SMN2 promoter = SMN2 promoter β-lactamase reporter assay in NSC34 motor neuron-like cells; assay type: cell-based
Description: FIG. 30 illustrates a screen for SMN2 expression of a number of compounds described herein.
SMN2 promoter activity was measured using NSC34 motor neuron-like cells stably transfected with a β-lactamase (BLA) reporter gene under the control of a 3.4-kilobase fragment of the SMN2 promoter. D156844 was used as a positive control for this assay.

mice [11] = settings: mouse, in vivo, ip
Description: as §1

mice [12] = experiment: Audiogenic Seizure susceptible (AGS) test, mice i.p.; assay type: in vivo; settings: Mus musculus, ip
mice [13] = experiment: Corneal kindled mouse model; assay type: in vivo; settings: for ED50: Mus musculus
rats [14] = experiment: Minimal motor impairment (MID50), rats p.o.; assay type: in vivo
C3A hepatocyte cells [15] = experiment: ACTIVTox LDH release assay; assay type: cell-based; settings: for LDH release, mean fold control: at 100 μM, C3A hepatocyte cells, value below 1.75 = no cyto- or hepatotoxic activity; for cyto- or hepatotoxicity, ACTIVTox data: at physiologically relevant concentrations (i.e., <100 µM)
Description: Compounds A, I, H, and F were tested by Stem Cell Innovations, Inc. (Houston, TX) in their ACTIVTox® Human Liver Cell-based assays (using C3A hepatocyte cells). Specifically, the compounds were tested in the LDH release assay, which determines the release of Lactate DeHydrogenase (an indicator of cell death) at various concentrations of test compound.
A concentration of 100 µM of test compound is a much higher level of exposure to liver cells than would ever be expected under physiological conditions. Therefore, using 100 μM as a standard test concentration (for comparative purposes), the ratio of the absorbance (which measures the level of LDH release) resulting from the presence of the test compound versus the negative control is a value known as the “average (or mean) fold control” (Average Fold Control=Average of Absorbance/Average of Negative Control).

[16] = tested on: rat dopaminergic N27 cells; experiment: N27 protection assay against oxidative stress (H2O2 or MPP+; MTT and LDH); assay type: cell-based; settings: drug 24 hours before 200 μM H2O2 or 640 μM MPP+
Summary of the method: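 Protection mode: N27 cells pretreated with drug at various concentrations for 24 hours, then exposed to 200 μM H2O2 or 640 μM MPP+. Recovery mode: cells damaged by H2O2 first, drug applied afterwards. Viability measured by MTT reduction and cytotoxicity by released LDH.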

[17] = tested on: type II SMA fibroblasts (GM03813); experiment: SMN protein localization, gem counting in type II SMA fibroblasts; assay type: cell-based; settings: 100 nM-10 μM, 5 days
Description: To validate the SMN2 promoter and exon 7 screens, the effects of compounds H, H (acid form), AY, F, BX, and BY were evaluated on the basis of expression and localization of SMN protein in type II SMA fibroblasts (GM03813). In a normal cell, SMN protein localized within the nucleus to discreet foci known as gems. In SMN-deficient SMA cells, the number of gems is greatly diminished. Although the function of gems is unknown, it is believed that they are somehow involved in the snRNP assembly function of SMN. Gem counting can, therefore, be considered an assay for SMN function.
GM03813 fibroblasts were treated with different doses (100 nM-10 μM) of compounds H, H (acid form), AY, F, BX, and BY for 5 days. SMN immunostaining was then completed on these cells and the number of gems was counted in 100 randomly-selected nuclei. […] In fact, the gem counts at the highest dose of compound H approach those observed for carrier fibroblasts (GM03814). When compared against treatment with 1 μM D157495—a D156844 derivative, all of the compounds tested performed as well as or, even better than D157495.

in vivo = settings: mouse, ip
Description: as §1

rats [18] = experiment: Preliminary Hippocampal Kindling Screening in rats (i.p.); assay type: in vivo; settings: at 65 mg/kg
C3A hepatocyte cells [19] = experiment: ACTIVTox Cell Proliferation Assay; assay type: cell-based; settings: at a concentration of 100 μM
[20] = tested on: inclusion of exon 7 in SMN2 mRNAs; experiment: Exon 7 inclusion BLA reporter assay in NSC34 cell line; assay type: cell-based
Text: To measure changes in the inclusion of exon 7 in SMN2 mRNAs, another NSC34 cell line was used that stably transfected with a reporter construct which expresses BLA when exon 7 is included in the SMN2 minigene mRNAs. 5-(N-ethyl-N-isopropyl)-amiloride (EIPA) was used as a positive control for this assay. Data for tis assay is illustrated in FIG. 30.

[21] = Rattus norvegicus, 0.5 h, read-out: Intervention @ 30 min, Protection
[22] = Rattus norvegicus, read-out: Prevention, Protection
[23] = mice, i.p., read-out: 6 Hz ED50

O=C1NC(=O)C(c2ccccc2)(c2ccccc2)N1 [phenytoin]
% of control inhibited, sodium currents, typical sodium-channel-blocking drugs (sodium channels): about 50% | efficacy in the two genders (comparison drug) (rats [1]): significantly less effective in male kindled rats than it is in female kindled rats

Nc1nnc(-c2cccc(Cl)c2Cl)c(N)n1 [lamotrigine]
% of control inhibited, sodium currents, typical sodium-channel-blocking drugs (sodium channels): about 50%

CC(CC(N)=O)c1cccc(C(F)(F)F)c1 (stereo not shown) [Compound G, 3-[3-(trifluoromethyl)-phenyl]butyramide]
ED50 (mice [2]; ip, mice): < 100 mg/kg | MES, fraction of animals (mice [2]; mice i.p., 100 mg/kg @ 0.5 hr): 3/3 @0.5 | MES, fraction of animals (mice [2]; mice i.p., 100 mg/kg @ 4.0 hr): hr, 1/3 @ | ED50 (mice [3]; mice, i.p.): ≤ 100 mg/kg | s.c. MET, fraction of animals (mice [3]; mice i.p., 100 mg/kg @ 0.5 hr): 1/1 @0.5 | activity in the MES test (rats [4]; at 30 mg/kg): activity | activity in the s.c. MET test (rats [5]; at 30 mg/kg): activity | seizure score, Hippocampal Kindled Rats model (rats [6]; rats, at 100 mg/kg): significantly lowering the seizure score | allodynic threshold (rats [7]; 1 hour post-administration): 275 % of the control | allodynic threshold (rats [7]; 2 hours post-administration): 219 % of the control | allodynic threshold (rats [7]; 4 hours post-administration): 175 % of the control | MID50, fraction of animals (mice [8]; mice i.p., 100 mg/kg @ 0.5 hr): 7/8 @0.5 hr | MID50 (median minimal motor impairment dose) (mice [8]): <100 mg/kg | responders at 200 mg/kg (rats [9]; [21]): 88% | responders at 200 mg/kg (rats [9]; [22]): 100%

Cc1ccc(C(CC(N)=O)C2CC2)cc1 (stereo not shown) [AL, 3-Cyclopropyl-3-ρ-tolyl-propionamide]
activity in the MES test (mice [2]; mouse, in vivo, 100 mg/kg): activity | 6 Hz (32 mA), fraction of animals (mice [10]; mouse, in vivo, 100 mg/kg): 4/4, 2/4, and 2/4 , 1/4 @ | SMN2 promoter activity (SMN2 promoter): increased SMN2 promoter activity | MID50, result in words (mice [11]): No | Prevention, Protection (rats [9]): 100%

NC(=O)CC1(c2cccc(Cl)c2)CCCC1 [CX]
MES, fraction of animals (mice [2]; mouse, in vivo, ip, 100 mg/kg): 4/4 @ and 3/4, 2/4 @ | s.c. MET, fraction of animals (mice [3]; mouse, in vivo, 100 mg/kg): 2/4 @ 0.25 hrs | Promoter (SMN2 promoter test, summary YES/NO) (SMN2 promoter): YES | SMN2 promoter activity (SMN2 promoter): increased SMN2 promoter activity | MID50, fraction of animals (mice [11]; 100 mg/kg): 8/8 @ 0.25 hrs

CC(CC(N)=O)c1ccc(C(F)(F)F)cc1 (stereo not shown) [F, 3-[4-(trifluoromethyl)-phenyl]butyramide]
ED50 (mice [2]; ip, mice): 85.3 mg/kg | ED50 (mice [2]; ip, mice i.p., @ 2.0 hrs): 85.3 mg/kg | ED50 (mice [3]; mice i.p., @ 1.0 hr): 85.5 mg/kg | ED50 (mice [3]; mice, i.p.): 85.5 mg/kg | ED50 (mice [12]; mice): 41.3 mg/kg | ED50 (mice [12]; mice i.p., @ 2.0 hrs): 41.3 mg/kg | ED50 (mice [10]; mice i.p., @ 0.5 hrs, read-out: 6 Hz (32 mA) ED50): 80.8 mg/kg | ED50 (mice [10]; [23]): 80.8 mg/kg | ED50 (mice [13]; ip, mice i.p., @1.0 hrs, read-out: Corneal Kindled ED50): 60.6 mg/kg | ED50 (mice [13]; read-out: ED50, corneal kindled mouse model): 60.6 mg/kg | seizure score, corneal kindled mouse model (mice [13]; at 100 mg/kg): zero | MID50 (rats [14]): >500 (none observed) mg/kg | ED50 (rats [4]): 26.4 mg/kg | ED50 (rats [5]): > 250 mg/kg | ED50 (rats [6]): 29 mg/kg | LDH release, mean fold control (C3A hepatocyte cells [15]): 1.47 | cyto- or hepatotoxicity, ACTIVTox data (C3A hepatocyte cells [15]): not cyto- or hepatotoxic | neuroprotective effect against H2O2 and MPP+ oxidative stresses (MTT and LDH assays) [16]: statistically significant, dose-dependent neuroprotection | gem counts (SMN immunostaining, 100 nuclei) [17]: increase gem counts in a dose-dependent manner | TD50 (in vivo): > 200 mg/kg | MID50 (TD50) (mice [8]; mice i.p., @ 0.25 hr): 208.37 | MID50 (median minimal motor impairment dose) (mice [8]): 208.37 mg/kg | responders at 65 mg/kg (rats [9]; [22]): 14%

CC(C)(CC(N)=O)c1ccc(Cl)cc1 [Compound A, 3-(4-Chlorophenyl)-3-methylbutyramide]
ED50 (mice [2]; ip, mice): 41.6 mg/kg | ED50 (mice [2]; ip, mice i.p., @ 0.25 hr): 41.6 mg/kg | ED50 (mice [3]; mice i.p., @ 0.25 hr): 39.3 mg/kg | ED50 (mice [3]; mice, i.p.): 39.3 mg/kg | ED50 (mice [10]; [23]): 47.6 mg/kg | MID50 (rats [14]): 244.90 mg/kg | ED50 (rats [4]): 28.8 mg/kg | ED50 (rats [5]): 45 mg/kg | seizure score, Preliminary Hippocampal Kindling Screening (rats [18]): zero | ED50 (rats [6]): 26 mg/kg | LDH release, mean fold control (C3A hepatocyte cells [15]): 1.05 | cyto- or hepatotoxicity, ACTIVTox data (C3A hepatocyte cells [15]): not cyto- or hepatotoxic | Cell Proliferation Assay, mean fold control (C3A hepatocyte cells [19]): 1.15 | toxicity to proliferating cells (C3A hepatocyte cells [19]): non-toxic | SMN2 promoter activity (SMN2 promoter; treatment for 19 hours at a concentration of 1 μM): increased SMN2 promoter activity | effect on the inclusion of exon 7 in SMN2 transcripts ([20]; NSC34 exon 7 BLA reporter cells): positive effect on the inclusion of exon 7 | Exon 7 inclusion (summary YES/NO) ([20]; Table 13 summary): YES | TD50 (in vivo): 108 mg/kg | MID50 (median minimal motor impairment dose) (mice [8]): 107.87 mg/kg | responders at 120 mg/kg (rats [9]; [21]): 57% | responders at 65 mg/kg (rats [9]; [22]): 86%

COc1ccc(C(C)CC(N)=O)cc1 (racemic) [BZ]
Promoter (SMN2 promoter test, summary YES/NO) (SMN2 promoter): YES | SMN2 promoter activity (SMN2 promoter): increased SMN2 promoter activity | MID50, result in words (mice [11]): No | Prevention, Protection (rats [9]): 100%

Reference: patent publication US12486218B2, “Compounds advantageous in the treatment of central nervous system diseases and disorders” (AurimMed Pharma, Inc., priority 2008, dated 2025)
